# Experimental data: patent US8461328B2, “Tricyclic heterocyclic compounds, compositions and methods of use thereof” (Genentech, Inc., priority 2010, dated 2013)
# pKi: −log10 of the molar value.
# Tests used:
# Format in all cases: biochemical
# [1] = molecular target: T1, JAK1 (Homo sapiens, UniProt P23458); test: JAK1 inhibition (Table 4); settings: read-out: JAK1 Ki
# T1 construct: made in house; host or cells: SF9 insect cells (baculovirus)
# [2] = molecular target: T2, JAK2 (Homo sapiens, UniProt O60674); test: JAK2 inhibition (Table 4); settings: read-out: JAK2 Ki
# T2 construct: made in house; host or cells: SF9 insect cells (baculovirus)
# T2 sequence (O60674 812-1132): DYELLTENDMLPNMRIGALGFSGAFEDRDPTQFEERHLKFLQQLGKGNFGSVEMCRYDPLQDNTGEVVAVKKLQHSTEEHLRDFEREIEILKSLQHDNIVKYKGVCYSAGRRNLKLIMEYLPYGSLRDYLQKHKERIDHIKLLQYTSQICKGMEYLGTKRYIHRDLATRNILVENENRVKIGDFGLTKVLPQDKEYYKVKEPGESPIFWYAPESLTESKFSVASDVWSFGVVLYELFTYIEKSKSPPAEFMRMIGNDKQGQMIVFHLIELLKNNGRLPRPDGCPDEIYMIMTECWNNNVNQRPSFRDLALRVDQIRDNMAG
# [3] = molecular target: T3, JAK3 (Homo sapiens, UniProt P52333); test: JAK3 inhibition (Table 4); settings: read-out: JAK3 Ki
# T3 construct: made in house; host or cells: SF9 insect cells (baculovirus)
# T3 sequence (P52333 783-1124): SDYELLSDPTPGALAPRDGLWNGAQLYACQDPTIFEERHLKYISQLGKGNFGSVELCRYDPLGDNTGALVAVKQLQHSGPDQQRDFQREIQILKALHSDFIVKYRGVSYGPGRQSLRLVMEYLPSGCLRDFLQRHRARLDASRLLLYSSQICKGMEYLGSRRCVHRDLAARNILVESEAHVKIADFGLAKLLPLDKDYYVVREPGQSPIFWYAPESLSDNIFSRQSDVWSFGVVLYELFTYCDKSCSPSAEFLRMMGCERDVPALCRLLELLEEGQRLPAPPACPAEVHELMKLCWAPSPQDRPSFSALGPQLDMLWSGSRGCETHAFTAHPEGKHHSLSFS
# [4] = molecular target: T4, TYK2 (Homo sapiens, UniProt P29597); test: TYK2 inhibition (Table 4)
# T4 construct: made in house; host or cells: SF9 insect cells (baculovirus)
# T4 sequence (P29597 873-1187): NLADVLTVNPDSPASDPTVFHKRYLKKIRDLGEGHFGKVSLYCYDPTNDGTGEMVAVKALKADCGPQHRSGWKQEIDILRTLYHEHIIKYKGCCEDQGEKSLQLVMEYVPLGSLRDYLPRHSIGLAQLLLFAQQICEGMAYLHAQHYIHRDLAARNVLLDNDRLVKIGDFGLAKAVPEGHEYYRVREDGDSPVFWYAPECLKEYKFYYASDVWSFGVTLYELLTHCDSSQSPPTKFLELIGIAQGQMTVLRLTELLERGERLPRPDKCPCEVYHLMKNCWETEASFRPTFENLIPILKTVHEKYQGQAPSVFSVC
# T1 sequence (P23458 852-1154): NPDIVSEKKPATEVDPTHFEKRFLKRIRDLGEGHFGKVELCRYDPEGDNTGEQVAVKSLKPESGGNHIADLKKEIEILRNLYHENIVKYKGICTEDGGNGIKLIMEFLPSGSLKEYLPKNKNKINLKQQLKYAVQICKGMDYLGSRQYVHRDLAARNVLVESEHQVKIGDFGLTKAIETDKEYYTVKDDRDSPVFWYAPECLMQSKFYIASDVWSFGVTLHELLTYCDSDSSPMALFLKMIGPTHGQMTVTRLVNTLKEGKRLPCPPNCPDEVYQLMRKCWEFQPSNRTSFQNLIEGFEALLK
SMILES,pKi [1],pKi [2],pKi [3],pKi [4]
"COCC(=O)NC1CCCC(n2cnc3cnc4[nH]ccc4c32)C1 (single isomer, unassigned) [Example 481, 2-Methoxy-N-[3-(6H-1,3,5,6-tetraaza-as-indacen-1-yl)-cyclohexyl]-acetamide]",6.90,6.57,6.08,6.10
"OC1CCCC(n2nnc3cnc4[nH]ccc4c32)C1 (single isomer, unassigned) [Example 551, 3-(6H-1,2,3,5,6-Pentaaza-as-indacen-1-yl)-cyclohexanol]",7.87,7.72,6.89,7.05
"OC1CCCC(n2nnc3cnc4[nH]ccc4c32)C1 (single isomer, unassigned) [Example 553, 3-(6H-1,2,3,5,6-Pentaaza-as-indacen-1-yl)-cyclohexanol]",8.07,7.69,7.37,7.47
"OC1CCCC(n2nnc3cnc4[nH]ccc4c32)C1 (single isomer, unassigned) [Example 554, 3-(6H-1,2,3,5,6-Pentaaza-as-indacen-1-yl)-cyclohexanol]",7.88,7.50,7.11,7.22
"OC1CCCC(n2cnc3cnc4[nH]ccc4c32)C1 (single isomer, unassigned) [Example 559, 3-(6H-1,3,5,6-Tetraaza-as-indacen-1-yl)-cyclohexanol]",7.99,7.62,7.28,7.41
"OC1CCCC(n2cnc3cnc4[nH]ccc4c32)C1 (single isomer, unassigned) [Example 561, 3-(6H-1,3,5,6-Tetraaza-as-indacen-1-yl)-cyclohexanol]",8.14,7.75,7.84,7.61
"c1cc2c(ncc3nc(C4CCCN4)n(C4CCCOC4)c32)[nH]1 (single isomer, unassigned) [Example 668]",5.99,5.53,5.58,5.49
"C[C@@H](N)c1nc2cnc3[nH]ccc3c2n1C1CCCOC1 (single isomer, unassigned) [Example 669, 1-[1-(Tetrahydro-pyran-3-yl)-1,6-dihydro-1,2,3,5,6-tetraaza-as-indacen-2-yl]-ethylamine]",6.86,6.04,6.08,6.17
"CCOC(=O)NCCc1nc2cnc3[nH]ccc3c2n1C1CCN(CC)CC1(F)F (single isomer, unassigned) [Example 679, {2-[1-(1-Ethyl-3,3-difluoro-piperidin-4-yl)-1,6-dihydro-1,2,3,5,6-tetraaza-as-indacen-2-yl]-ethyl}-carbamic acid ethyl ester]",8.13,7.26,7.56,6.38
"CCOC(=O)NCCc1nc2cnc3[nH]ccc3c2n1C1CCN(CC)CC1(F)F (single isomer, unassigned) [Example 680, {2-[1-(1-Ethyl-3,3-difluoro-piperidin-4-yl)-1,6-dihydro-1,2,3,5,6-tetraaza-as-indacen-2-yl]-ethyl}-carbamic acid ethyl ester]",8.14,7.25,7.55,6.38
"CCN1CCC(n2c(CCNS(C)(=O)=O)nc3cnc4[nH]ccc4c32)C(F)(F)C1 (single isomer, unassigned) [Example 806, N-{2-[1-(1-Ethyl-3,3-difluoro-piperidin-4-yl)-1,6-dihydro-1,3,5,6-tetraaza-as-indacen-2-yl]-ethyl}-methanesulfonamide]",8.47,7.67,7.75,6.75
"CC(O)c1nc2cnc3[nH]ccc3c2n1C1CC2CCC1O2 (single isomer, unassigned) [Example 846, endo-1-[1-(7-Oxa-bicyclo[2.2.1]hept-2-yl)-1,6-dihydro-1,3,5,6-tetraaza-as-indacen-2-yl]-ethanol]",7.04,6.43,6.58,6.13
"CC(O)c1nc2cnc3[nH]ccc3c2n1C1CC2CCC1O2 (single isomer, unassigned) [Example 847, endo-1-[1-(7-Oxa-bicyclo[2.2.1]hept-2-yl)-1,6-dihydro-1,3,5,6-tetraaza-as-indacen-2-yl]-ethanol]",6.98,6.28,6.42,6.55
"CS(=O)(=O)NCc1nc2cnc3[nH]ccc3c2n1C1CC2CCC1O2 (single isomer, unassigned) [Example 850, endo-N-[1-(7-Oxa-bicyclo[2.2.1]hept-2-yl)-1,6-dihydro-1,3,5,6-tetraaza-as-indacen-2-ylmethyl]-methanesulfonamide]",7.22,6.87,6.98,6.44
"OCc1nc2cnc3[nH]ccc3c2n1C1CC2CCC1O2 (single isomer, unassigned) [Example 851, endo-[1-(7-Oxa-bicyclo[2.2.1]hept-2-yl)-1,6-dihydro-1,3,5,6-tetraaza-as-indacen-2-yl]-methanol]",7.59,7.27,7.61,7.30
"CCN1CCC(n2c([C@@H](C)O)nc3cnc4[nH]ccc4c32)C(F)(F)C1 (single isomer, unassigned) [Example 879]",8.41,7.65,7.55,7.58

# The remaining compounds from weak to strong by pKi [1], led by results:
pKi [1],pKi [2],pKi [3],pKi [4],SMILES
6.58,6.75,6.25,5.96,"COCC(=O)NC1CCCC(n2cnc3cnc4[nH]ccc4c32)C1 (single isomer, unassigned) [Example 480, 2-Methoxy-N-[3-(6H-1,3,5,6-tetraaza-as-indacen-1-yl)-cyclohexyl]-acetamide]"
6.89,6.91,6.92,6.38,"CC(=O)NC1CCCC(n2cnc3cnc4[nH]ccc4c32)C1 (single isomer, unassigned) [Example 479, N-[3-(6H-1,3,5,6-Tetraaza-as-indacen-1-yl)-cyclohexyl]-acetamide]"
7.25,7.01,6.82,6.07,"COCC(=O)NC1CCCC(n2cnc3cnc4[nH]ccc4c32)C1 (single isomer, unassigned) [Example 482, 2-Methoxy-N-[3-(6H-1,3,5,6-tetraaza-as-indacen-1-yl)-cyclohexyl]-acetamide]"
7.29,6.29,6.23,6.34,"CS(=O)(=O)NCc1nc2cnc3[nH]ccc3c2n1C1CC2CCC1O2 (single isomer, unassigned) [Example 849, endo-N-[1-(7-Oxa-bicyclo[2.2.1]hept-2-yl)-1,6-dihydro-1,3,5,6-tetraaza-as-indacen-2-ylmethyl]-methanesulfonamide]"
7.54,6.85,6.93,7.05,"OCc1nc2cnc3[nH]ccc3c2n1C1CC2CCC1O2 (single isomer, unassigned) [Example 852, endo-[1-(7-Oxa-bicyclo[2.2.1]hept-2-yl)-1,6-dihydro-1,3,5,6-tetraaza-as-indacen-2-yl]-methanol]"
7.62,6.85,6.71,7.11,"CC(O)c1nc2cnc3[nH]ccc3c2n1C1CC2CCC1O2 (single isomer, unassigned) [Example 907, (o)-1-[1-(7-Oxa-bicyclo[2.2.1]hept-2-yl)-1,6-dihydro-1,3,5,6-tetraaza-as-indacen-2-yl]-ethanol]"
7.83,7.02,6.89,7.24,"CC(O)c1nc2cnc3[nH]ccc3c2n1C1CC2CCC1O2 (single isomer, unassigned) [Example 905, (o)-1-[1-(7-Oxa-bicyclo[2.2.1]hept-2-yl)-1,6-dihydro-1,3,5,6-tetraaza-as-indacen-2-yl]-ethanol]"
8.09,7.88,7.43,7.33,"OC1CCCC(n2cnc3cnc4[nH]ccc4c32)C1 (single isomer, unassigned) [Example 560, 3-(6H-1,3,5,6-Tetraaza-as-indacen-1-yl)-cyclohexanol]"
8.18,7.99,7.93,7.62,"OC1CCCC(n2nnc3cnc4[nH]ccc4c32)C1 (single isomer, unassigned) [Example 552, 3-(6H-1,2,3,5,6-Pentaaza-as-indacen-1-yl)-cyclohexanol]"
8.34,8.12,8.23,7.92,"OC1CCCC(n2cnc3cnc4[nH]ccc4c32)C1 (single isomer, unassigned) [Example 562, 3-(6H-1,3,5,6-Tetraaza-as-indacen-1-yl)-cyclohexanol]"
8.55,7.44,8.05,6.80,"CCN1CCC(n2c(CCNS(C)(=O)=O)nc3cnc4[nH]ccc4c32)C(F)(F)C1 (single isomer, unassigned) [Example 805, N-{2-[1-(1-Ethyl-3,3-difluoro-piperidin-4-yl)-1,6-dihydro-1,3,5,6-tetraaza-as-indacen-2-yl]-ethyl}-methanesulfonamide]"
8.71,7.71,8.30,7.61,"CCN1CCC(n2c([C@@H](C)O)nc3cnc4[nH]ccc4c32)C(F)(F)C1 (single isomer, unassigned) [Example 880]"
